Patent publication US20260207577A1, “METHODS OF USING FACTOR B INHIBITORS” (priority 2023, published 2026)

Columns and labels:
Format in all cases: in vivo, human
[1] = tested on: alternative complement pathway; experiment: Phase 2 study CLNP023X2202, complement biomarkers
Experimental: (§1) The proposed iptacopan dose of 200 mg b.i.d. is considered appropriate based on data from the Phase 2 study, CLNP023X2202. […] Thus, the 200 mg b.i.d. dose of iptacopan appears to produce maximum changes in all of the complement biomarkers that have been evaluated to date in C3G patients.

[2] = tested on: native kidney C3G patients; experiment: Phase 2 study CLNP023X2202, safety and tolerability
Experimental: as §1

[3] = tested on: native C3G patients; experiment: Phase 2 study CLNP023X2202, proteinuria and renal function; conditions: native C3G patients (N=16), final dose levels of 200 mg b.i.d.
Experimental: as §1

Question: Which results are given for CCO[C@H]1CCN(Cc2c(OC)cc(C)c3[nH]ccc23)[C@H](c2ccc(C(=O)O)cc2)C1 [iptacopan, 4-((2S,4S)-(4-ethoxy-1-((5-methoxy-7-methyl-1H-indol-4-yl)methyl)piperidin-2-yl))benzoic acid]?
Answer: C3 levels, dose dependence ([1]; 16 native C3G patients): increased dose-dependently; dose at which maximum decreases in plasma Bb, plasma sC5b-9 and urine sC5b-9 were obtained ([1]; 16 native C3G patients): 100 mg b.i.d.; dose at which maximum decreases in the Wieslab assay and increases in C3 were observed ([1]; 16 native C3G patients): 200 mg b.i.d.; sC5b-9, Bb, the Wieslab assay and urine sC5b-9, dose dependence ([1]; 16 native C3G patients): decreased dose-dependently; plasma Bb, plasma and urine sC5b-9 ([1]; Cohort A): reduction; Wieslab activity ([1]; at 200 mg b.i.d): full inhibition; serum C3 levels ([1]; both cohorts): overall normalization; inhibition of alternative complement pathway ([1]; both cohorts, upon iptacopan treatment): Dose-dependent, profound and sustained inhibition; changes in hematology, biochemistry, urinalysis, vital signs or ECG parameters ([2]; in vivo): no notable changes; discontinuations due to adverse events ([2]; in vivo): no definitive discontinuations due to adverse events; tolerability ([2]; in vivo): well tolerated without unexpected or new safety findings; deaths or serious adverse events during the treatment period ([2]; native kidney C3G patients): no deaths or serious adverse events were observed; renal function (SCR, CrCl, eGFR) [3]: stabilization of renal function; reduction in UPCR from baseline to Week 12 ([3]; two-sided p=0.0003): 45%
